For series [1], the system named is Staphylococcus aureus. The series is described as follows: Antibacterial activity against Staphylococcus aureus ATCC 29213 = CCM 4223 assessed as inhibition of bacterial growth incubated for 24 hrs in presence of BSA by microdilution assay. In kind it is functional. In general terms: Broth dilution looks for growth in wells or tubes with falling amounts of substance.

Series [2] deals with Staphylococcus aureus. The experiment in a line: Antibacterial activity against Staphylococcus aureus ATCC 29213 = CCM 4223 assessed as inhibition of bacterial growth incubated for 24 hrs by microdilution assay. It counts as functional.
Series [3] in a line: Hemolytic activity in human RBC assessed as haemoglobin release measured after 3 hr. It counts as toxicity, cell-based, Erythrocyte. The conditions noted are these: red blood cells (erythrocytes).
Another series concerns Enterococcus faecalis. The experiment in a line: Antibacterial activity against Enterococcus faecalis ATCC 29212 = CCM 4224 assessed as inhibition of bacterial growth incubated for 24 hrs by microdilution assay. In kind it is functional.
Series [4] relates to Staphylococcus epidermidis. The series is described as follows: Antibacterial activity against Staphylococcus epidermidis CCM 7221 assessed as inhibition of bacterial growth incubated for 24 hrs by microdilution assay. It counts as functional.
The subject of series [5] is Pseudomonas aeruginosa. The experiment in a line: Antibacterial activity against multidrug-resistant Pseudomonas aeruginosa assessed as reduction in microbial growth incubated for 24 hrs by microdilution assay. It counts as functional.
In series [6] the test system is Escherichia coli. The experiment in a line: Antibacterial activity against Escherichia coli ATCC 25922 = CCM 3954 assessed as inhibition of bacterial growth incubated for 24 hrs by microdilution assay. In kind it is functional.
For series [7], the system named is Escherichia coli. The experiment in a line: Antibacterial activity against multidrug-resistant Escherichia coli CE5556 expressing CTX-M-15 assessed as reduction in microbial growth incubated for 24 hrs by microdilution assay. It counts as functional.
Series [8] can be described thus: Gradient chromatographic hydrophobicity index of the compound at pH 3.7 by HPLC analysis. In kind it is ADME.
The subject of another series is Enterococcus faecium. The experiment in a line: Antibacterial activity against vancomycin resistant Enterococcus faecium 419/ANA assessed as reduction in microbial growth incubated for 24 hrs by microdilution assay. In kind it is functional.
Series [9] concerns Pseudomonas aeruginosa. The experiment in a line: Antibacterial activity against Pseudomonas aeruginosa ATCC 27853 = CCM 3955 assessed as inhibition of bacterial growth incubated for 24 hrs by microdilution assay. It counts as functional.
For series [10], the system named is Escherichia coli. The experiment in a line: Antibacterial activity against Escherichia coli ATCC 25922 = CCM 3954 assessed as inhibition of bacterial growth incubated for 24 hrs in presence of BSA by microdilution assay. In kind it is functional.
For series [11], the system named is Staphylococcus aureus. The series is described as follows: Antibacterial activity against methicillin resistant Staphylococcus aureus 4591/A assessed as reduction in microbial growth incubated for 24 hrs by microdilution assay. It counts as functional.

Broadly, the MIC is the lowest concentration that inhibits growth of the organism. One may read the HC50 as the concentration giving 50% haemolysis. For `CCCCCCCOP(=O)(CCN(CCCN)CCCN)OCCCCOP(=O)(CCN(CCCN)CCCN)OCCCCCCC.Cl.Cl.Cl.Cl.Cl.Cl` (stereo not drawn), the MIC was 8 µg/mL in the series with Staphylococcus aureus [1]; 4 µg/mL in the series with Staphylococcus aureus [2]; 64 µg/mL in the series with Enterococcus faecalis; 2 µg/mL in series [4]; 128 µg/mL with Pseudomonas aeruginosa [5]; 8 µg/mL with Escherichia coli [6]. In addition, the MIC is 64 µg/mL in the series on Escherichia coli [7]; over 128 µg/mL in the series with Enterococcus faecium; 128 µg/mL with Pseudomonas aeruginosa [9]; 32 µg/mL in the series with Escherichia coli [10]; 4 µg/mL with Staphylococcus aureus [11]. Also, in series [3], the HC50 at 3 h is over 200 µg/mL. Moreover, the CHI in series [8] amounted to 30.7.

On to `Cl.Cl.Cl.Cl.Cl.Cl.NCCCN(CCCN)CCP(=O)(OCCCCCCCCOP(=O)(CCN(CCCN)CCCN)OCCc1ccccc1)OCCc1ccccc1` (stereo not drawn), for which the MIC with Staphylococcus aureus [1] came out at 32 µg/mL; in the series on Staphylococcus aureus [2], 16 µg/mL; in the series with Enterococcus faecalis, 128 µg/mL; in series [4], 8 µg/mL; in the series on Pseudomonas aeruginosa [5], 128 µg/mL; with Escherichia coli [6], 128 µg/mL. For the same molecule, the minimal inhibitory concentration (MIC) in the series with Escherichia coli [7] was 128 µg/mL; in the series with Enterococcus faecium it was 128 µg/mL; in the series on Pseudomonas aeruginosa [9], 128 µg/mL; with Escherichia coli [10], 128 µg/mL; with Staphylococcus aureus [11], 16 µg/mL. The HC50 at 3 h in series [3] was over 200 µg/mL. In [8], this molecule came in with a CHI of 27.3.

As to `Cl.Cl.Cl.Cl.Cl.Cl.NCCCN(CCCN)CCP(=O)(OCCCOP(=O)(CCN(CCCN)CCCN)OCC1CCCC1)OCC1CCCC1` (stereo not drawn), the MIC (with Staphylococcus aureus [1]; in the series on Staphylococcus aureus [2]; in the series on Enterococcus faecalis; in series [4]; in the series with Pseudomonas aeruginosa [5]; with Escherichia coli [6]) was over 128 µg/mL in each case. The MIC with Escherichia coli [7], in the series on Enterococcus faecium, in the series on Pseudomonas aeruginosa [9], in the series with Escherichia coli [10] and with Staphylococcus aureus [11] was over 128 µg/mL in each case. Moreover, the HC50 at 3 h in series [3] was over 1000 µg/mL. This molecule also had a CHI in series [8] of 5.

On to `CCCC/C=C\CCOP(=O)(CCN(CCCN)CCCN)OCCCOP(=O)(CCN(CCCN)CCCN)OCC/C=C\CCCC.Cl.Cl.Cl.Cl.Cl.Cl` (stereo not drawn), for which the MIC in the series on Staphylococcus aureus [1] was 32 µg/mL; in the series with Staphylococcus aureus [2], 16 µg/mL; in the series with Enterococcus faecalis it was 128 µg/mL; in [4], 8 µg/mL; in the series on Pseudomonas aeruginosa [5], 128 µg/mL; in the series with Escherichia coli [6], 128 µg/mL. The MIC in the series on Escherichia coli [7] was 128 µg/mL; with Enterococcus faecium, over 128 µg/mL; with Pseudomonas aeruginosa [9] it was 64 µg/mL; in the series with Escherichia coli [10], 128 µg/mL; with Staphylococcus aureus [11], 16 µg/mL. Further, in series [3], the HC50 at 3 h is over 200 µg/mL. Moreover, the CHI in series [8] is on record as 31.3.

Regarding `CCCCCCOP(=O)(CCN(CCN)CCN)OCCCCCCCCOP(=O)(CCN(CCN)CCN)OCCCCCC.Cl.Cl.Cl.Cl.Cl.Cl` (stereo not drawn), the MIC is 1 µg/mL in the series on Staphylococcus aureus [1]; 2 µg/mL with Staphylococcus aureus [2]; 16 µg/mL with Enterococcus faecalis; 2 µg/mL in series [4]; 64 µg/mL in the series with Pseudomonas aeruginosa [5]; 8 µg/mL with Escherichia coli [6]. Besides, the MIC is 64 µg/mL with Escherichia coli [7]; 128 µg/mL with Enterococcus faecium; 32 µg/mL in the series on Pseudomonas aeruginosa [9]; 16 µg/mL with Escherichia coli [10]; 2 µg/mL in the series with Staphylococcus aureus [11]. Moreover, in series [3], the HC50 at 3 h turned out to be 231 µg/mL. In series [8], this molecule displayed a CHI of 38.6.

Consider `CCCC/C=C\CCOP(=O)(CCN(CCN)CCN)OCCCCCCOP(=O)(CCN(CCN)CCN)OCC/C=C\CCCC.Cl.Cl.Cl.Cl.Cl.Cl` (stereo not drawn), for which the MIC came to 2 µg/mL with Staphylococcus aureus [1]; 1 µg/mL in the series on Staphylococcus aureus [2]; 4 µg/mL in the series on Enterococcus faecalis; 0.5 µg/mL in series [4]; 8 µg/mL with Pseudomonas aeruginosa [5]; 1 µg/mL in the series on Escherichia coli [6]. Moreover, the minimal inhibitory concentration (MIC) was 2 µg/mL with Escherichia coli [7]; 32 µg/mL in the series with Enterococcus faecium; 16 µg/mL in the series with Pseudomonas aeruginosa [9]; 2 µg/mL in the series on Escherichia coli [10]; 1 µg/mL in the series on Staphylococcus aureus [11]. Also, in [3], the 50% haemolytic concentration (HC50) at 3 h was 254 µg/mL. This molecule also displayed a CHI in series [8] of 40.1.

Consider `CCC/C=C\CCOP(=O)(CCN(CCN)CCN)OCCCCCCCOP(=O)(CCN(CCN)CCN)OCC/C=C\CCC.Cl.Cl.Cl.Cl.Cl.Cl` (stereo not drawn), for which the minimal inhibitory concentration (MIC) in the series on Staphylococcus aureus [1] is 4 µg/mL; in the series with Staphylococcus aureus [2] it was 2 µg/mL; in the series on Enterococcus faecalis it was 16 µg/mL; in series [4], 0.5 µg/mL; with Pseudomonas aeruginosa [5], 32 µg/mL; with Escherichia coli [6] it was over 128 µg/mL. For the same molecule, the MIC was 32 µg/mL with Escherichia coli [7]; 128 µg/mL in the series on Enterococcus faecium; 32 µg/mL in the series on Pseudomonas aeruginosa [9]; 16 µg/mL in the series with Escherichia coli [10]; 1 µg/mL with Staphylococcus aureus [11]. Also, the HC50 at 3 h in series [3] was over 500 µg/mL. Also, in series [8], the CHI was 37.4.

For `Cl.Cl.Cl.Cl.Cl.Cl.NCCCN(CCCN)CCP(=O)(OCCCCCCOP(=O)(CCN(CCCN)CCCN)OCCc1ccccc1)OCCc1ccccc1` (stereo not drawn), the MIC in the series with Staphylococcus aureus [1] was over 128 µg/mL; in the series on Staphylococcus aureus [2], 64 µg/mL; in the series with Enterococcus faecalis, over 128 µg/mL; in [4], 64 µg/mL; in the series on Pseudomonas aeruginosa [5] it was over 128 µg/mL; with Escherichia coli [6], over 128 µg/mL. Also, the MIC was over 128 µg/mL with Escherichia coli [7]; over 128 µg/mL with Enterococcus faecium; over 128 µg/mL in the series with Pseudomonas aeruginosa [9]; over 128 µg/mL in the series with Escherichia coli [10]; 64 µg/mL in the series with Staphylococcus aureus [11]. For the same molecule, the HC50 at 3 h in series [3] is over 200 µg/mL. Besides, the CHI in series [8] was 11.9.

`CCCCC/C=C\CCOP(=O)(CCN(CCCN)CCCN)OCCCOP(=O)(CCN(CCCN)CCCN)OCC/C=C\CCCCC.Cl.Cl.Cl.Cl.Cl.Cl` (stereo not drawn): the MIC is 4 µg/mL in the series on Staphylococcus aureus [1]; 2 µg/mL in the series with Staphylococcus aureus [2]; 8 µg/mL with Enterococcus faecalis; 2 µg/mL in [4]; 4 µg/mL in the series on Pseudomonas aeruginosa [5]; 2 µg/mL in the series on Escherichia coli [6]. Also, the MIC with Escherichia coli [7] came to 4 µg/mL; with Enterococcus faecium, 64 µg/mL; in the series on Pseudomonas aeruginosa [9], 8 µg/mL; in the series with Escherichia coli [10] it was 4 µg/mL; in the series on Staphylococcus aureus [11] it was 2 µg/mL. The HC50 at 3 h in series [3] was over 500 µg/mL. In series [8], this molecule showed a CHI of 36.2.

Consider `CCC/C=C\CCOP(=O)(CCN(CCCN)CCCN)OCCCCCOP(=O)(CCN(CCCN)CCCN)OCC/C=C\CCC.Cl.Cl.Cl.Cl.Cl.Cl` (stereo not drawn), for which the MIC with Staphylococcus aureus [1] was 64 µg/mL; with Staphylococcus aureus [2], 32 µg/mL; in the series on Enterococcus faecalis, over 128 µg/mL; in series [4], 128 µg/mL; in the series with Pseudomonas aeruginosa [5] it was over 128 µg/mL; with Escherichia coli [6] it was 128 µg/mL. For the same molecule, the MIC in the series on Escherichia coli [7] was over 128 µg/mL; with Enterococcus faecium it was over 128 µg/mL; in the series with Pseudomonas aeruginosa [9] it was over 128 µg/mL; in the series with Escherichia coli [10] it was 128 µg/mL; in the series with Staphylococcus aureus [11] it was 32 µg/mL. Moreover, the HC50 at 3 h in series [3] is over 250 µg/mL. Also, in [8], the CHI is listed as 28.2.

Regarding `CCCCCOP(=O)(CCN(CCCN)CCCN)OCCCCCCCCCCOP(=O)(CCN(CCCN)CCCN)OCCCCC.Cl.Cl.Cl.Cl.Cl.Cl` (stereo not drawn), the minimum inhibitory concentration (MIC) in the series on Staphylococcus aureus [1] worked out at 8 µg/mL; in the series on Staphylococcus aureus [2], 2 µg/mL; with Enterococcus faecalis, 32 µg/mL; in series [4], 1 µg/mL; with Pseudomonas aeruginosa [5] it was 8 µg/mL; with Escherichia coli [6], 2 µg/mL. Further, the MIC in the series on Escherichia coli [7] was 128 µg/mL; in the series on Enterococcus faecium, 128 µg/mL; in the series with Pseudomonas aeruginosa [9], 16 µg/mL; in the series with Escherichia coli [10] it was over 128 µg/mL; in the series on Staphylococcus aureus [11] it was 2 µg/mL. Further, the HC50 at 3 h in series [3] came to 159 µg/mL. The molecule further yielded a CHI in [8] of 31.3.

Values taken from ChEMBL document CHEMBL5120927, “LEGO-Lipophosphonoxins: A Novel Approach in Designing Membrane Targeting Antimicrobials” (J Med Chem, 2022).
